Converted amounts (≈) assume the structure as drawn.
Key:
Ketohexokinase [1] = target: T1, Ketohexokinase (Homo sapiens, UniProt P50053); test: Inhibition of KHK in human HepG2 cells incubated for 3 hrs by Rapidfire MS analysis; type: cell-based
T1 sequence (P50053 whole entry): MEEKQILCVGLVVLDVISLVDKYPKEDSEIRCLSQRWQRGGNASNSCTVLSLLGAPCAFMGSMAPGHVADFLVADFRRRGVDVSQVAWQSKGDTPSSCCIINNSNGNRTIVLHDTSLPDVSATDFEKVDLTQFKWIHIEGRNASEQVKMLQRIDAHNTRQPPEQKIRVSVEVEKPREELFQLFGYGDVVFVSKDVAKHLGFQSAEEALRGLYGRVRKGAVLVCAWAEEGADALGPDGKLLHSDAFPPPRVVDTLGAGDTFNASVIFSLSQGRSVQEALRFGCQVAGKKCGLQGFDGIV

[2] = Inhibition of mouse KHK-A
[3] = Inhibition of mouse KHK-C
[4] = Metabolic stability in mouse liver microsomes assessed as compound degradation measured after 30 mins; type: ADME, Microsome; conditions: read-out: Drug degradation
[5] = Metabolic stability in rat liver microsomes assessed as compound degradation measured after 30 mins; type: ADME, Microsome; conditions: read-out: Drug degradation
[6] = Metabolic stability in dog liver microsomes assessed as compound degradation measured after 30 mins; type: ADME, Canis lupus familiaris, Microsome; conditions: read-out: Drug degradation
[7] = Metabolic stability in human liver microsomes assessed as compound degradation measured after 30 mins; type: ADME, Microsome; conditions: read-out: Drug degradation
[8] = Thermodynamic solubility of the compound […] at pH 7.4; type: physicochemical; conditions: read-out: Therm_solubility
Hepatocyte = test: Cytotoxicity against rat Primary hepatocyte; type: toxicity, cell-based; conditions: hepatocytes
[9] = Permeability in MDCK cells assessed as drug transport measured over 1 hr in presence of P-gp; type: ADME, cell-based, Canis lupus familiaris; conditions: dog
[10] = Clearance in rat hepatocytes measured per 10^6 cells; type: ADME, cell-based, Hepatocyte; conditions: read-out: CLH
[11] = Clearance in dog hepatocytes measured per 10^6 cells; type: ADME, cell-based, Canis lupus familiaris, Hepatocyte; conditions: read-out: CLH
[12] = Clearance in human hepatocytes measured per 10^6 cells; type: ADME, cell-based, Hepatocyte; conditions: read-out: CLH
[13] = AUC in rat at 1 mg/kg, iv measured after 12 hrs; type: ADME, organism-based; set-up: time 12 hrs, dose 1 mg/kg, route iv; conditions: in vivo
[14] = Cmax in rat at 1 mg/kg, iv measured after 12 hrs; type: ADME, organism-based; set-up: dose 1 mg/kg, time 12 hrs, route iv; conditions: in vivo
[15] = Clearance in rat at 1 mg/kg, iv measured after 12 hrs; type: ADME, organism-based; conditions: in vivo
[16] = Half life in rat at 1 mg/kg, iv measured after 12 hrs; type: ADME, organism-based; conditions: in vivo
[17] = Volume of distribution in rat at 1 mg/kg, iv measured after 12 hrs; type: ADME, organism-based; conditions: in vivo
[18] = AUC in dog at 1 mg/kg, iv; type: ADME, organism-based, Canis lupus familiaris; set-up: dose 1 mg/kg, route iv; conditions: in vivo
[19] = Cmax in dog at 1 mg/kg, iv; type: ADME, organism-based, Canis lupus familiaris; set-up: dose 1 mg/kg, route iv; conditions: in vivo
[20] = Clearance in dog at 1 mg/kg, iv; type: ADME, organism-based, Canis lupus familiaris; conditions: in vivo
[21] = Half life in dog at 1 mg/kg, iv; type: ADME, organism-based, Canis lupus familiaris; conditions: in vivo
[22] = Volume of distribution in dog at 1 mg/kg, iv; type: ADME, organism-based, Canis lupus familiaris; conditions: in vivo
Ketohexokinase [23] = target: T1, Ketohexokinase; test: Inhibition of human KHK-A preincubated for 15 mins followed by substrate addition and measured after 20 mins in presence of ATP by Rapidfire MS analysis
Ketohexokinase [24] = target: T1, Ketohexokinase; test: Inhibition of human KHK-C preincubated for 15 mins followed by substrate addition and measured after 20 mins in presence of ATP by Rapidfire MS analysis

Row | IC50 (Ketohexokinase [1]) [nM] | IC50 [2] [nM] | IC50 [3] [nM] | metabolised at 0.5 h [4] [%] | metabolised at 0.5 h [5] [%] | metabolised at 0.5 h [6] [%] | metabolised at 0.5 h [7] [%] | solubility thermodynamic [8] [µg/mL] | Drug transport [9] [%] | hepatocyte CLint [10] [µL/min/1e6 cells] | hepatocyte CLint [11] [µL/min/1e6 cells] | hepatocyte CLint [12] [µL/min/1e6 cells] | IC50 (Ketohexokinase [23]) [nM] | IC50 (Ketohexokinase [24]) [nM] | Compound | LC20 (Hepatocyte) [nM] | other results
1 | 40 | 108 | 32 | 20 | 0 | 0 | 4 | 690 (≈ 1950 µM) | 2.2 | 10 | 2 | < 1.8 | – | – | OC[C@H]1CCN1c1nc(-c2cnn(C3CNC3)c2)cc(C(F)(F)F)n1 | > 50000 | AUC at 12 h [13]: 0.531 µM·h; Cmax [14]: 1050 nM; clearance [15]: 90 mL/min/kg; half-life [16]: 0.7 h; Vd [17]: 3.4 L/kg; AUC [18]: 1.31 µM·h; Cmax [19]: 2730 nM; clearance [20]: 37 mL/min/kg; half-life [21]: 3.7 h; Vd [22]: 5.2 L/kg
2 | 15 | – | 8 | 32 | 38 | 57 | 26 | 38 (≈ 87.5 µM) | – | – | – | – | 4 | 6 | C[C@H]1CCN1c1nc(-c2cnn(C3CCN(CCO)CC3)c2)cc(C(F)(F)F)c1C#N | 17000 | –
3 | 6 | 13 | 3 | 21 | 11 | 20 | 7 | 450 (≈ 1330 µM) | 12 | 11 | 4.4 | 2.5 | 4 | 5 | C[C@H]1CCN1c1nc(-c2cnn(C3CNC3)c2)cc(C(F)(F)F)n1 | 48000 | –
4 | 3 | – | 2 | 87 | 86 | 100 | 20 | 11 (≈ 31.2 µM) | 22 | 29 | 49 | 5 | 5 | 4 | C[C@H]1CCN1c1nc(-c2cnn(C3CN(C)C3)c2)cc(C(F)(F)F)n1 | > 50000 | –
5 | 5 | 2 | 6 | 24 | 2 | 11 | 0 | 39 (≈ 99.9 µM) | 8.7 | 3.7 | 4.9 | 3.5 | 4 | 4 | C[C@H]1CCN1c1nc(-c2cnn(C3CCNCC3)c2)cc(C(F)(F)F)c1C#N | < 9000 | –
6 | 118 | 40 | 61 | 98 | 98 | 98 | 49 | 31 (≈ 79.2 µM) | – | – | – | – | 33 | 38 | C[C@H]1CCN1c1nc(-c2cnn(C3CCOCC3)c2)cc(C(F)(F)F)c1C#N | > 50000 | –
7 | 2 | 8 | 5 | 13 | 26 | 27 | 15 | 40 (≈ 110 µM) | – | – | – | – | 15 | 15 | C[C@H]1CCN1c1nc(-c2cnn(C3CNC3)c2)cc(C(F)(F)F)c1C#N | 31000 | –
8 | 20 | 4 | 14 | 86 | 33 | 36 | 11 | 11 (≈ 27.2 µM) | – | – | – | – | 7 | 6 | C[C@H]1CCN1c1nc(-c2cnn(C3CCN(C)CC3)c2)cc(C(F)(F)F)c1C#N | – | –
9 | 26 | 52 | 159 | 8 | 17 | 15 | 2 | 410 (≈ 1120 µM) | – | – | – | – | 8 | 15 | C[C@H]1CCN1c1nc(-c2cnn(C3CCNCC3)c2)cc(C(F)(F)F)n1 | 23000 | –

The next lines start with the compound.

Row | Compound | IC50 (Ketohexokinase [1]) [nM] | IC50 [2] [nM] | IC50 [3] [nM] | metabolised at 0.5 h [4] [%] | metabolised at 0.5 h [5] [%] | metabolised at 0.5 h [6] [%] | metabolised at 0.5 h [7] [%] | solubility thermodynamic [8] [µg/mL] | Drug transport [9] [%] | hepatocyte CLint [10] [µL/min/1e6 cells] | hepatocyte CLint [11] [µL/min/1e6 cells] | hepatocyte CLint [12] [µL/min/1e6 cells] | IC50 (Ketohexokinase [23]) [nM] | IC50 (Ketohexokinase [24]) [nM] | LC20 (Hepatocyte) [nM] | other results
10 | C[C@H]1CCN1c1nc(-c2cnn(CC(=O)N(CCO)CCO)c2)cc(C(F)(F)F)c1C#N | 102 | 16 | 35 | 30 | 9 | 16 | 27 | 28 (≈ 61.9 µM) | 2 | 6.1 | 2.6 | 43 | – | – | > 50000 | AUC at 12 h [13]: 1.59 µM·h; Cmax [14]: 2940 nM; clearance [15]: 23 mL/min/kg; half-life [16]: 2.4 h; Vd [17]: 4.8 L/kg
11 | C[C@H]1CCN1c1nc(-c2cnn(CC(=O)N3C[C@H](O)[C@@H](O)C3)c2)cc(C(F)(F)F)c1C#N | 76 | 5 | 12 | 20 | 1 | 9 | 24 | 21 (≈ 46.6 µM) | 0.5 | 2.3 | < 1.8 | 3.6 | 7 | – | > 50000 | AUC at 12 h [13]: 0.381 µM·h; Cmax [14]: 1280 nM; clearance [15]: 101 mL/min/kg; half-life [16]: 0.5 h; Vd [17]: 4.6 L/kg; AUC [18]: 2.5 µM·h; Cmax [19]: 2650 nM; clearance [20]: 16 mL/min/kg; half-life [21]: 2.1 h; Vd [22]: 2.7 L/kg
12 | C[C@H]1CCN1c1nc(-c2cn[nH]c2)cc(C(F)(F)F)c1C#N | 34 | 6 | 19 | 100 | 81 | 98 | 52 | 3 (≈ 9.76 µM) | 20 | 30 | 150 | 49 | – | – | > 50000 | –
13 | C[C@H]1CCN1c1nc(-c2cnn(CCN(C)C)c2)cc(C(F)(F)F)c1C#N | 82 | 4.5 | 44 | 100 | 83 | 100 | 76 | < 1 | – | – | – | – | 22 | 28 | > 50000 | –
14 | C[C@H]1CCN1c1nc(-c2cnn(CC(=O)N3C[C@@H](O)[C@H](O)C3)c2)cc(C(F)(F)F)c1C#N | 109 | 7 | 8 | 13 | 0 | 2 | 52 | 19 (≈ 42.2 µM) | 0.5 | 2.2 | 1.9 | 6.1 | – | – | > 50000 | AUC at 12 h [13]: 0.53 µM·h; Cmax [14]: 1830 nM; clearance [15]: 71 mL/min/kg; half-life [16]: 0.6 h; Vd [17]: 3.3 L/kg
15 | CC(=O)N1CCC(n2cc(-c3cc(C(F)(F)F)c(C#N)c(N4CC[C@@H]4C)n3)cn2)CC1 | 96 | 19 | 45 | 66 | 30 | 32 | 45 | 7 (≈ 16.2 µM) | – | – | – | – | – | – | – | –
16 | C[C@H]1CCN1c1nc(-c2cnn(C3CCN(C(=O)CN)CC3)c2)cc(C(F)(F)F)c1C#N | 16 | 3 | 10 | 18 | 5 | 0 | 0 | 12 (≈ 26.8 µM) | – | – | – | – | 6 | 6 | 16000 | –
17 | C[C@H]1CCN1c1nc(-c2cnn(CC(=O)N3CCN(C)CC3)c2)cc(C(F)(F)F)c1C#N | 36 | 4 | 7 | 93 | 52 | 95 | 60 | 7 (≈ 15.6 µM) | – | – | – | – | 9 | 6 | 18000 | –
18 | C[C@H]1CCN1c1nc(-c2cnn(CCO)c2)cc(C(F)(F)F)c1C#N | 48 | 4 | 7 | 99 | 99 | 95 | 52 | 1 (≈ 2.85 µM) | – | – | – | – | 5 | – | – | –

From ChEMBL document CHEMBL5375962 (J Med Chem, 2023)
